According to US9656981B2, “Peripherally-acting cannabinoid receptor agonists for chronic pain” (The Regents of the University of California, priority 2012, dated 2017):
pKi: −log10 of the molar value. “Also recorded” adds a separate entry of the source. Read-outs that look alike come from different tables or passages of the source.

How the values were obtained:
[1] = system: rats; test: Tail-flick test of the tetrad; assay type: in vivo, rat; details: 0.3 mg/kg, intraperitoneal
Source text: A modified Hargreaves apparatus (Model 390, IITC Instr.) is used to measure tail-flick latency (TFL). Radiant heat is directed to a point 3 cm from the tail tip and the TFL observed and timed with a photo cell counter. The intensity of the radiant heat is adjusted for a baseline TFL of approximately 5-7 seconds for naïve rats, with a 25 s cutoff set to avoid tissue damage (see FIG. 3).

[2] = system: rats; test: Rotarod test of the tetrad; assay type: in vivo, rat
Protocol: Rats were tested for motor function and the ataxic effects of novel drugs as described previously^151-153. To determine drug effects on motor coordination, rats are trained 72 h before the test (3 sessions 24 h apart) to remain for at least 180 s on a rotarod revolving at an acceleration of 4-40 revs over 5 min). Rats are tested immediately before vehicle or drug injections and tested again at 2, 6, 24 and 48 hrs after injection. The time for which the rats are able to remain on the rotarod is recorded up to a cut-off of 5 min.

[3] = system: rats; test: Hypothermia test of the tetrad; assay type: in vivo, rat
Protocol: Rats are acclimated to a plastic restrainer apparatus (Model RTV-180 Braintree Scientific Inc.) on the day of testing by placing them in the restrainer twice for 5 min separated by 20 min. Baseline core temperature is taken before treatment, and the rectal temperature is measured again at various times after injection of the CB1R ligands.

[4] = target: CB2R (Homo sapiens, UniProt P34972); test: CB2R radioligand displacement binding assay (CP55940 radioligand); details: Table 1; CP55940 radioligand; read-out: CB2_KI_CP
[5] = system: CFA-induced mechanical allodynia; test: CFA chronic inflammation, mechanical allodynia; assay type: in vivo, rat; details: systemic injection
Protocol: Rats are placed in a plastic-walled cage (10×20×13 cm) with a metal mesh floor (0.6×0.6 cm holes) and allowed to acclimate for 10 min. The amount of pressure (g) needed to evoke a hindpaw withdrawal response is measured 4 times on each paw separated by 30-s intervals using a von Frey-type digital meter (Model 1601C, IITC Instr.). Results of 4 tests/session are averaged for each paw.
Compounds were tested in a well-established model of chronic inflammation. In this model, unilateral intraplantar injection of complete Freund's adjuvant (CFA) leads to long-lasting symptoms of mechanical allodynia and thermal hyperalgesia of the affected hindpaw, which is alleviated by local, […] administration of CB1R ligands^125, 155. […] This is consistent with the higher CB1R affinity of our novel compound 13339-145-35 (Compound 9, see Table 1) compared with the AstraZeneca AZ11713908 compound^125.

[6] = target: CB1R (Homo sapiens, UniProt P21554); test: CB1R radioligand displacement binding assay (CP55940 radioligand)
Protocol: Heterologous competition binding assays were performed to calculate receptor affinities. Unlabeled SR141716 or SR144528 were used as appropriate controls for non-specific binding (NSB) in the assay. Calculation of the equilibrium dissociation constant (Ki) was performed using the Cheng-Prusoff equation.

[7] = target: human CB1R (hCB1R) (Homo sapiens, UniProt P21554); test: human CB1R (hCB1R) calcium flux assay; assay type: cell-based; details: Table 1; read-out: Ca Flux % Emax
Source text: Compounds were first screened for: a) CB1R and CB2R binding, b) CB1R agonist activity using the human CB1R (hCB1R) calcium flux assay, and c) BBB permeability using the Madin-Darby canine kidney (MDCK-MDR1) cell line assay.
The calcium 3 dye assays were run according to manufacturer's specifications (http://www.moleculardevices.com/Products/Assay-Kits/GPCRs/FLIPR-Calcium.html) and as reported in our previous publications^112,113. Briefly, wells of black clear-bottom 96-well tissue culture-treated plates are seeded with 20,000 cells the afternoon before assay. The day of assay, the cells are incubated with the Ca^2+ indicator dye for 1 hr @ 37° C. For antagonist assays, the test compound is preincubated with the cells during the last 10 min of the dye incubation. Basal or unstimulated fluorescence intensity is recorded in the FlexStation @ 37° C. for 13 sec followed by the addition of test compound or CP 55,940 (depending on the assay endpoint). Fluorescence intensity is recorded for an additional 47 sec. The effect of test compound in each well is determined by subtracting the minimum from the maximum fluorescence during the 47-sec recording period.

[8] = S9 fraction stability assay; assay type: in vitro ADME; details: 30 min; rat liver S9, 10 μM
Protocol: Compounds are incubated at 10 μM in rat (male Sprague Dawley) liver S9 at 37° C. Each compound is prepared in ethanol at a concentration of 1 mM. An assay mixture containing S9 (1 mg protein/mL final concentration) and an NADPH regenerating system (NADP [1 mM final], glucose 6-phosphate [5 mM final] and glucose 6-phosphate dehydrogenase [1 U/mL final]) in a buffer consisting of 50 mM KPO4 phosphate buffer, pH 7.4 with 3 mM MgCl2 is prepared and preincubated at 37° C. for 5 min. A 10 μL volume of the 1 mM solution is added to 990 μL of assay mixture in a glass test tube @ 37° C. to initiate the assay. Samples (50 μL) are removed at 0, 15, 30, 60 and 120 min and immediately extracted with 3 volumes (150 μL) of methanol, centrifuged to pellet protein and supernatants transferred to LC/MS vials for analysis.

Chain of CB1R (P21554 whole entry): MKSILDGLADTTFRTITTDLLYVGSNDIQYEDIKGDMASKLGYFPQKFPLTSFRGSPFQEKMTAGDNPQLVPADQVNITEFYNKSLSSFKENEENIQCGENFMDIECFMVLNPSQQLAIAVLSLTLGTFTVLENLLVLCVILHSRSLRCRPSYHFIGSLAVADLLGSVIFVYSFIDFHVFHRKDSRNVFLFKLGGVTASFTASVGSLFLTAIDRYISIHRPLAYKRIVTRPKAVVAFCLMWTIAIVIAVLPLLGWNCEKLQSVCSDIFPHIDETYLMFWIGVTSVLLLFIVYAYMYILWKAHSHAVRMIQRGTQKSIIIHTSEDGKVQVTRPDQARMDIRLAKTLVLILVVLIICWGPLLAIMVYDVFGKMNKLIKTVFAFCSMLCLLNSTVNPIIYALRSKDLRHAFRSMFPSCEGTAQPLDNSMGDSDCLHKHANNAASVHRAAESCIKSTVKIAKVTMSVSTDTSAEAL
Chain of CB2R (P34972 whole entry): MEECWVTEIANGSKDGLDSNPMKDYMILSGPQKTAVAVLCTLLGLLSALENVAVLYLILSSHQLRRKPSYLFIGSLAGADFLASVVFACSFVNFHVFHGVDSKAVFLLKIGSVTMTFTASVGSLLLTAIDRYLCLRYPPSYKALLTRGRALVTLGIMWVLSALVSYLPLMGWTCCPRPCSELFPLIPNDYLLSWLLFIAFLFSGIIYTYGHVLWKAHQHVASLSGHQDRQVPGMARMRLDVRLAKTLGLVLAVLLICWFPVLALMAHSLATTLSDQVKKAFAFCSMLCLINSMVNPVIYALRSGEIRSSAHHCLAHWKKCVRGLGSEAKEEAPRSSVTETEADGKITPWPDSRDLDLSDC
Chain of human CB1R (hCB1R) (P21554 whole entry): as the sequence (P21554 whole entry) above

CCCc1ccc(/C=C2\C=C(CCN3CCOCC3)c3ccccc32)c2ccccc12 [Compound 9, 4-{2-[(1E)-1-[(4-propylnaphthalen-1-yl)methylidene]-1H-inden-3-yl]ethyl} morpholine]
effect in the tail-flick assay [1]: small effect | effect in the rotarod assay ([2]; 0.3 mg/kg, intraperitoneal, listed as 13339-145-35): no effect; also recorded: complete lack of effects | Rotarod % change from pre-drug (0.3 mg/kg) at 2-3 hr ([2]; 2-3 hr): 0% | effect in the hypothermia assay ([3]; 0.3 mg/kg, intraperitoneal): no effect | Hypothermia % change from predrug (0.3 mg/kg) at 2-3 hr ([3]; 2-3 hr): 0% | pKi [4]: 9.00 | effect on CFA-induced mechanical allodynia [5]: small but significant relief | pKi [6]: 9.00 | pKi ([6]; read-out: CB1R binding affinity (Ki)): 8.93 | Emax [7]: 108% | S9% remaining @ xy min [8]: 39%
